Values of other authors as cited in patent publication US20080166330A1, “Bacterial Compositions For Prevention Or Treatment Of Atherosclerotic Disorders” (priority 2004, published 2008).

Test system: anti-Chlamydia abzymes
Conditions: general statement of the description, no test details

With `CC[C@H]1OC(=O)[C@H](C)[C@@H](O[C@H]2C[C@@](C)(OC)[C@@H](O)[C@H](C)O2)[C@H](C)[C@@H](O[C@@H]2O[C@H](C)C[C@H](N(C)C)[C@H]2O)[C@](C)(O)C[C@@H](C)CN(C)[C@H](C)[C@@H](O)[C@]1(C)O` [azithromycin] as the compound, how does the “inhibition of abzyme activity” value read?
Its value is “inhibit abzyme activity”.
